# Data reported in patent US7678818B2, “Anthranilamide and 2-amino-heteroarene-carboxamide compounds” (Hoffmann-La Roche Inc., priority 2006, dated 2010).
# Target: T1, cholesteryl ester transfer protein (CETP) from human lipoprotein-deprived serum (LPDS) (Homo sapiens, UniProt P11597)
# T1 construct: the source of CETP was human lipoprotein-deprived serum (LPDS); from tissue; host or cells: human lipoprotein-deprived serum (LPDS)
# T1 sequence (P11597 18-493): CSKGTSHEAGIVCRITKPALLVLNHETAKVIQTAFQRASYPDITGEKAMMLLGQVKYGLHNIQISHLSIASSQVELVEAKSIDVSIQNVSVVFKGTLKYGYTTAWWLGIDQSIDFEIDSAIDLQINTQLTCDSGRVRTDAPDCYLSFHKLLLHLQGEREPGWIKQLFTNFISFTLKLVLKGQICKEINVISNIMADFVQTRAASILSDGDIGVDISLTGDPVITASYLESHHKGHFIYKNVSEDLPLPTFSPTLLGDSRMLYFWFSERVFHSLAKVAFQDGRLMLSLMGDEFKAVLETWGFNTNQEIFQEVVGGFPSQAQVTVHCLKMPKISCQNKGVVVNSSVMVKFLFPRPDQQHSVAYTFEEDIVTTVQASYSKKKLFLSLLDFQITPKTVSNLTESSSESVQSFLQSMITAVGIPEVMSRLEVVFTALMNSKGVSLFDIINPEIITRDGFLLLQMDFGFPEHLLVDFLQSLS
# Assay: CETP inhibition in the presence of plasma (SPA assay, CETP source human lipoprotein-deprived serum)
# Assay type: biochemical
# Protocol: Activity of CETP inhibitors was determined using a buffer assay system. Partially purified CETP transferred radiolabeled cholesteryl ester from HDL donor particles to biotin-labeled LDL acceptor particles. The reaction was stopped by addition of streptavidin-coupled scintillation proximity assay (SPA) beads. These beads captured the biotinylated acceptor particles and transferred radioactivity was measured. The assay system was purchased and performed according to manufacturer's recommendations (Amersham Biosciences). Inhibitory activity of compounds was determined as percentage of positive control activity containing CETP together with donor and acceptor particles. Serial dilution of compounds was performed in order to determine the IC50 values.
# Activity of the compounds was subsequently measured in the presence of plasma using the same assay as described above except that the source of CETP was human lipoprotein-deprived serum (LPDS). Inhibitory activity of compounds was determined as percentage of positive control activity containing all the assay components except compound. Serial dilution of compounds was performed in order to determine the IC50 values.
row,IC50 [µM],SMILES
1,0.295,"CNc1c(Cl)ccc(F)c1C(=O)N(CCc1cccc(C(F)(F)F)c1)Cc1ccc(C(C)(C)C)cc1 [Compound 13.254, N-(4-tert-Butyl-benzyl)-3-chloro-6-fluoro-2-methylamino-N-[2-(3-trifluoromethyl-phenyl)-ethyl]-benzamide]"
2,5.61,"CCC(=O)Nc1ccc(Cl)c(Cl)c1C(=O)N(CCc1cccc(C(F)(F)F)c1)Cc1ccc(C(C)(C)C)cc1 [Compound 13.230, N-(4-tert-Butyl-benzyl)-2,3-dichloro-6-propionylamino-N-[2-(3-trifluoromethyl-phenyl)-ethyl]-benzamide]"
3,30,"CC(C)(C)c1ccc(CN(CCc2cccc(C(F)(F)F)c2)C(=O)c2cccnc2N)cc1 [Compound 13.63, 2-Amino-N-(4-tert-butyl-benzyl)-N-[2-(3-trifluoromethyl-phenyl)-ethyl]-nicotinamide]"
